Results: US20240002388A1, “PYRIMIDINONE COMPOUNDS AND USES THEREOF” (HUTCHISON MEDIPHARMA LIMITED, priority 2020, published 2024)

Each compound was assayed on U937 cell line (human histiocytic lymphoma cell line) (assay: U937 cell viability assay (TNF-α + Z-VAD-FMK induced necroptosis)). Conditions: Homo sapiens, U-937; U937 cells, hTNF-α 0.1 μg/mL + Z-VAD-FMK 50 μM, 20 hours, CellTiter-Glo.
Format: cell-based
Method: U937 cell line (human histiocytic lymphoma cell line): purchased from ATCC (American Type Culture Collection) Cell Bank, cultured in a 5% CO2, 37° C. incubator, and RPMI 1640 medium which contains L-glutamine, 1.5 g/L sodium bicarbonate, 2.383 g/L HEPES solution, 0.11 g/L sodium pyruvate and 4.5 g/L glucose, plus 10% fetal bovine serum (FBS) was used. • RPMI 1640 medium: GIBCO, Cat #A10491-01; • Fetal bovine serum (FBS): GIBCO, Cat #10099-141C; • Dimethyl sulfoxide (DMSO): Sigma, Cat #D2650; • Recombinant Human TNF-alpha Protein (hTNF-α): R&D system, Cat #210-TA-100; • Pan-Caspase inhibitor (Z-VAD-FMK): Selleckchem, Cat #S7023; • CellTiter-Glo 2.0 Cell Viability Assay kit: Promega, Cat #G9242; • Microwell plate reader: Envision, Perkin Elmer; • 96-well plate: Corning, Cat #3917.
The U937 cells at the logarithmic phase were taken out, centrifuged to remove the medium, washed with PRMI 1640 medium containing 1% FBS, and diluted with 1% FBS-containing RPMI 1640 medium to 2.5×10^5 cells/ml, inoculated at 70 μL/well into a 96-well plate, i.e., 1.75×10^4 cells/well. The plate was cultured in a 5% CO2, 37° C. cell incubator. After incubating for 1 hour, the test compound was diluted to the corresponding concentrations using DMSO with 3-fold serial dilution, then the corresponding concentration of DMSO diluted solution was diluted into 1% FBS-containing RPMI 1640 medium, and 10 μL/well of the diluted test compound with different concentrations (final concentration of test compound was 1.0, 0.333, 0.111, 0.037, 0.012, 0.004, 0.0014 and 0.0005 μM, while final concentration of DMSO was 0.3%) or 10 μL/well control solution (3% DMSO) were added to the cell culture system respectively, with the total volume being 80 μL/well; Then 10 μL of Z-VAD-FMK solution diluted with 1% FBS-containing RPMI 1640 medium (final concentration of 50 μM) or 10 μL of control solution (2.5% DMSO) was added to each well, with the total volume being 90 μL/well. The plate was incubated in a 5% CO2, 37° C. cell culture incubator for 1 hour.
After being cultured for 1 hour, 10 μL of human recombinant TNF-α protein diluted with 1% FBS-containing RPMI 1640 medium (final concentration of 0.1 μg/mL) or 10 μL/well control solution (1% FBS-containing RPMI 1640 medium) was added to each well. The plate was incubated in a 5% CO2, 37° C. cell culture incubator for 20 hours.
The cell culture plate was taken out from the incubator, and left to stand at room temperature for 30 minutes. Meanwhile, CellTiter-Glo viability assay kit was put from freezer to room temperature, and 50 μL of CellTiter-Glo reagent was added to all wells, the plate was shaken for 1 minutes, protected from light at room temperature for 10 minutes then read the plate on Envision to get the luminescence signal.
The 96-well plate in the dark was taken out, and the chemiluminescence was determined using the Envision microwell plate reader as the signal value of each well.
The mean signal value of the wells of the mixed solution of recombinant human TNF-alpha protein (final concentration of 0.1 μg/mL) and Pan-Caspase inhibitor (final concentration of 50 μM) was used as the lower value, and the mean signal value of the wells without stimulation was used as the upper value. According to the signal value of each well, the inhibition rate of each concentration of every compound was calculated, and the IC50 value of compound was obtained by Model 205 in XL-Fit 5.3 software (ID Business Solutions Limited).
Inhibition rate %=[(Luminescence readout of treated compound−Luminescence readout of positive control)/(Luminescence readout of negative control−Luminescence readout of positive control)]×100%, wherein

Q: How did the IC50 turn out when `CC(C)n1cncc(-c2ccc(C3(NC(=O)c4ncc5cnn(C(C)C6CC6)c5n4)CC3)cc2)c1=O` (racemic) [Compound 59, 1-(1-cyclopropylethyl)-N-(1-(4-(1-i-propyl-6-oxo-1,6-dihydropyrimidin-5-yl)phenyl)cyclopropyl)-1H-pyrazolo[3,4-d]pyrimidine-6-carboxamide] was run?
A: The IC50 was 3 nM.

Q: With `CC(C)n1ncc2cnc(C(=O)NC3(c4ccc(-c5cncn([C@H](C)C(F)(F)F)c5=O)cc4F)CC3)nc21` (stereo in doubt) [Compound 46] as the compound, how does the IC50 read?
A: Its IC50 is 2 nM.

Q: How did the IC50 turn out when `CC(C)n1ncc2cnc(C(=O)NC3(c4ccc(-c5cncn([C@@H](C)C(F)(F)F)c5=O)cc4F)CC3)nc21` (stereo in doubt) [Compound 47] was run?
A: Its IC50 is 2 nM.

Q: With `CC(C)n1ncc2cnc(C(=O)NC3(c4ccc(-c5cncn(C6CCOC6)c5=O)cc4)CC3)nc21` (stereo in doubt) [Compound 80, (R)-1-i-propyl-N-(1-(4-(6-oxo-1-(tetrahydrofuran-3-yl)-1,6-dihydropyrimidin-5-yl)phenyl)cyclopropyl)-1H-pyrazolo[3,4-d]pyrimidine-6-carboxamide] as the compound, how does the IC50 read?
A: The IC50 was 9 nM.

Q: Which IC50 does the source give for `CC(C)n1ncc2cnc(C(=O)NC3(c4ccc(-c5cncn(C6CCOC6)c5=O)cc4)CC3)nc21` (stereo in doubt) [Compound 81, (S)-1-i-propyl-N-(1-(4-(6-oxo-1-(tetrahydrofuran-3-yl)-1,6-dihydropyrimidin-5-yl)phenyl)cyclopropyl)-1H-pyrazolo[3,4-d]pyrimidine-6-carboxamide] here?
A: The IC50 was 8 nM.

Q: Which IC50 does the source give for `CC(C#N)n1cncc(-c2ccc(C3(NC(=O)c4ncc5cnn(C(C)C)c5n4)CC3)cc2)c1=O` (stereo in doubt) [Compound 82, (R)—N-(1-(4-(1-(1-cyanoethyl)-6-oxo-1,6-dihydropyrimidin-5-yl)phenyl)cyclopropyl)-1-i-propyl-1H-pyrazolo[3,4-d]pyrimidine-6-carboxamide] here?
A: Its IC50 is 18 nM.

Q: How did the IC50 turn out when `CC(C#N)n1cncc(-c2ccc(C3(NC(=O)c4ncc5cnn(C(C)C)c5n4)CC3)cc2)c1=O` (stereo in doubt) [Compound 83, (S)—N-(1-(4-(1-(1-cyanoethyl)-6-oxo-1,6-dihydropyrimidin-5-yl)phenyl)cyclopropyl)-1-i-propyl-1H-pyrazolo[3,4-d]pyrimidine-6-carboxamide] was run?
A: Its IC50 is 17 nM.

Q: With `CC(C)n1ncc2cnc(C(=O)NC3(c4ccc(-c5cncn(C)c5=O)cc4)CC3)nc21` [Compound 1, 1-isopropyl-N-(1-(4-(1-methyl-6-oxo-1,6-dihydropyrimidin-5-yl)phenyl)cyclopropyl)-1H-pyrazolo[3,4-d]pyrimidine-6-carboxamide] as the compound, how does the IC50 read?
A: Its IC50 is 21 nM.

Q: `CC(C)n1ncc2cnc(C(=O)NC3(c4ccc(-c5cncn(C)c5=O)cn4)CC3)nc21` [Compound 2] was tested. Which IC50 did it give?
A: The IC50 was 170 nM.

Q: How did the IC50 turn out when `Cn1cncc(-c2ccc(C3(NC(=O)c4nnc(Cc5ccccc5)[nH]4)CC3)cc2)c1=O` [Compound 3] was run?
A: Its IC50 is 21 nM.

Q: `Cn1cncc(-c2ccc(C3(NC(=O)c4ncc5cnn(-c6ccccc6)c5n4)CC3)cc2)c1=O` [Compound 4] was tested. Which IC50 did it give?
A: Its IC50 is 17 nM.

Q: For `Cn1cncc(-c2ccc(C3(NC(=O)c4cc(Cc5ccccc5)on4)CC3)cc2)c1=O` [Compound 5], which IC50 is on record?
A: Its IC50 is 24 nM.

Q: How did the IC50 turn out when `CC(C)Cc1nc(C(=O)NC2(c3ccc(-c4cncn(C)c4=O)cc3)CC2)ncc1Cl` [Compound 6] was run?
A: Its IC50 is 21 nM.

Q: Which IC50 does the source give for `Cn1cncc(-c2ccc(C3(NC(=O)c4ncn(Cc5ccccc5)n4)CC3)cc2)c1=O` [Compound 8] here?
A: The IC50 was 14 nM.

Q: With `Cn1cncc(-c2ccc(C3(NC(=O)c4noc(Cc5ccccc5)n4)CC3)cc2)c1=O` [Compound 9] as the compound, how does the IC50 read?
A: Its IC50 is 52 nM.

Q: For `Cn1cncc(-c2ccc(C3(NC(=O)c4ncc(Cc5ccccc5)o4)CC3)cc2)c1=O` [Compound 10], which IC50 is on record?
A: Its IC50 is 8 nM.

Q: `Cn1cncc(-c2ccc(C3(NC(=O)c4nnc(Cc5ccccc5)o4)CC3)cc2)c1=O` [Compound 11] was tested. Which IC50 did it give?
A: Its IC50 is 139 nM.

Q: With `CC(C)n1ncc2cnc(C(=O)NC3(c4ccc(-c5cncn(C6CC6)c5=O)cc4)CC3)nc21` [Compound 12] as the compound, how does the IC50 read?
A: Its IC50 is 18 nM.

Q: Which IC50 does the source give for `CC(C)n1cncc(-c2ccc(C3(NC(=O)c4nnc(Cc5ccccc5)o4)CC3)cc2)c1=O` [Compound 13] here?
A: Its IC50 is 4 nM.

Q: How did the IC50 turn out when `CC(C)n1cncc(-c2ccc(C3(NC(=O)c4nc5n(n4)[C@@H](c4ccccc4)CC5)CC3)cc2)c1=O` [Compound 15] was run?
A: The IC50 was 20 nM.

Q: `CC(C)n1cncc(-c2ccc(C3(NC(=O)c4nc5n(n4)[C@H](c4ccccc4)CC5)CC3)cc2)c1=O` [Compound 16] was tested. Which IC50 did it give?
A: The IC50 was 2 nM.

Q: How did the IC50 turn out when `CC(C)n1cncc(-c2ccc(C3(NC(=O)c4ncn(Cc5ccccc5)n4)CC3)cc2)c1=O` [Compound 17] was run?
A: The IC50 was 1 nM.

Q: For `Cn1cncc(-c2ccc(C3(NC(=O)c4nnc(Cc5c(F)cccc5F)[nH]4)CC3)cc2)c1=O` [Compound 18], which IC50 is on record?
A: The IC50 was 82 nM.

Q: For `CC(C)n1cncc(-c2ccc(C3(NC(=O)c4ncc5cnn(-c6ccccc6)c5n4)CC3)cc2)c1=O` [Compound 19], which IC50 is on record?
A: Its IC50 is 3 nM.

Q: How did the IC50 turn out when `CC(C)Cc1nc(C(=O)NC2(c3ccc(-c4cncn(C(C)C)c4=O)cc3)CC2)ncc1Cl` [Compound 22] was run?
A: The IC50 was 3 nM.

Q: `CC(C)n1ncc2cnc(C(=O)NC3(c4ccc(-c5cncn(C)c5=O)c(F)c4)CC3)nc21` [Compound 23, N-(1-(3-fluoro-4-(1-methyl-6-oxo-1,6-dihydropyrimidin-5-yl)phenyl)cyclopropyl)-1-isopropyl-1H-pyrazolo[3,4-d]pyrimidine-6-carboxamide] was tested. Which IC50 did it give?
A: The IC50 was 57 nM.

Q: Which IC50 does the source give for `CC(C)n1ncc2cnc(C(=O)NC3(c4ccc(-c5cncn(C)c5=O)c(Cl)c4)CC3)nc21` [Compound 25] here?
A: The IC50 was 32 nM.

Q: How did the IC50 turn out when `CC(C)n1ncc2cnc(C(=O)NC3(c4ccc(-c5cncn(C)c5=O)cc4F)CC3)nc21` [Compound 26] was run?
A: The IC50 was 12 nM.

Q: For `CC(C)n1ncc2cnc(C(=O)NC3(c4ccc(-c5cncn(C)c5=O)cc4)CC3)cc21` [Compound 28, 1-isopropyl-N-(1-(4-(1-methyl-6-oxo-1,6-dihydropyrimidin-5-yl)phenyl)cyclopropyl)-1H-pyrazolo[4,3-c]pyridine-6-carboxamide], which IC50 is on record?
A: The IC50 was 135 nM.

Q: `CC(C)n1cncc(-c2ccc(C3(NC(=O)c4ncc5cnn(C(C)C)c5n4)CC3)cc2)c1=O` [Compound 29, 1-isopropyl-N-(1-(4-(1-isopropyl-6-oxo-1,6-dihydropyrimidin-5-yl)phenyl)cyclopropyl)-1H-pyrazolo[3,4-d]pyrimidine-6-carboxamide] was tested. Which IC50 did it give?
A: The IC50 was 3 nM.

Q: `CC(C)n1ncc2cnc(C(=O)NC3(c4ccc(-c5cnc(N)n(C)c5=O)cc4)CC3)nc21` [Compound 30] was tested. Which IC50 did it give?
A: Its IC50 is 8 nM.

Q: For `CC(C)n1cncc(-c2ccc(C3(NC(=O)c4ncc5cnn(C(C)C)c5n4)CC3)cc2Cl)c1=O` [Compound 33], which IC50 is on record?
A: The IC50 was 10 nM.

Q: With `CC(C)n1cncc(-c2ccc(C3(NC(=O)c4ncc5cnn(C(C)C)c5n4)CC3)c(F)c2)c1=O` [Compound 34] as the compound, how does the IC50 read?
A: The IC50 was 7 nM.

Q: For `CC(C)n1cncc(-c2ccc(C3(NC(=O)c4ncc5cnn(C(C)C)c5n4)CC3)cc2F)c1=O` [Compound 35], which IC50 is on record?
A: Its IC50 is 11 nM.

Q: With `CC(C)n1ncc2cnc(C(=O)NC3(c4ccc(-c5cncn(CC6CC6)c5=O)cc4)CC3)nc21` [Compound 36] as the compound, how does the IC50 read?
A: Its IC50 is 3 nM.

Q: With `CCn1cncc(-c2ccc(C3(NC(=O)c4ncc5cnn(C(C)C)c5n4)CC3)cc2)c1=O` [Compound 37] as the compound, how does the IC50 read?
A: The IC50 was 14 nM.

Q: Which IC50 does the source give for `CC(C)n1ncc2cnc(C(=O)NC3(c4ccc(-c5cncn(CC(F)(F)F)c5=O)cc4)CC3)nc21` [Compound 38] here?
A: Its IC50 is 13 nM.

Q: Which IC50 does the source give for `CC(C)n1ncc2cnc(C(=O)NC3(c4ccc(-c5cncn([C@H](C)C(F)(F)F)c5=O)cc4)CC3)nc21` [Compound 39] here?
A: Its IC50 is 6 nM.

Q: `CC(C)n1ncc2cnc(C(=O)NC3(c4ccc(-c5cncn([C@@H](C)C(F)(F)F)c5=O)cc4)CC3)nc21` [Compound 40] was tested. Which IC50 did it give?
A: Its IC50 is 12 nM.

Q: Which IC50 does the source give for `CC(C)n1ncc2cnc(C(=O)NC3(c4ccc(-c5cncn(C6COC6)c5=O)cc4)CC3)nc21` [Compound 41] here?
A: Its IC50 is 64 nM.
